Data published in US20090123389A1, “Methods for modulating Th17 cell development in the treatment and prevention of cellulite” (priority 2007, published 2009).

How the values were obtained:
dermal fibroblasts = assay: Spreading and contractile activity of dermal fibroblasts on Type I collagen; format: cell-based, human
Procedure: Inhibitors of cellulite formation are also identified by observing the effect of the test compound on fibroblast behavior. In this assay, a control population of primary dermal fibroblasts are cultured in a matrix of Type I collagen, mimicking the interstitial matrix of the dermis and hypodermis, such that the fibroblasts attach to the substratum and spread, exerting contractile force on the surrounding interstitial matrix. In the test population, primary dermal fibroblasts are incubated on a matrix of Type I collagen in the presence of a test compound for a predetermined length of time, e.g., 24 hrs. The ability of the dermal fibroblasts to attach to the substratum and spread is then observed.
An assay is provided to test the effects of HF and other selective Th17 inhibitors on the behavior of cells likely to provide the basis for the structural features of cellulite—dermal fibroblasts and myofibroblasts. When human primary dermal fibroblasts are cultured in a matrix of Type I collagen, mimicking the interstitial matrix of the dermis and hypodermis, they attach to the substratum and spread, exerting contractile force on the surrounding interstitial matrix. […] The ability of the dermal fibroblasts to attach and spread when cultured in the presence of the Th17 inhibitor is detected.

CD4+ CD25− T cells = assay: CD4+ T cell proliferation, CD25 upregulation, cytokine production, Th1/Th2/iTreg differentiation; format: cell-based, mouse; settings: for concentration causing general inhibition of T and B cell activation, proliferation and effector function: CD4+ T cells, CD8+ T cells, B220+ B cells
Procedure: The dose-response of HF on CD4+ T cell proliferation, activation (i.e. CD25 upregulation) and differentiation to Th1, Th2 and Th17 lineages were evaluated. Purified murine naïve CD4+ CD25− T cells were activated using anti-CD3 (0.3 μg/ml) and anti-CD28 (0.5 μg/ml) antibodies and varying amounts of HF was added to each T cell culture condition (1.25 nM-40 nM). CD4+ T cell proliferation was monitored by CFSE dilution on day 3-post activation and CD25 expression was evaluated by FACS staining 2 days after activation. For T cell differentiation experiments, naïve T cells were activated as above in the presence of Th1 (IL-12 (20 ng/ml) plus anti-IL-4 (1.5 μg/ml)), Th2 (IL-4 (50 ng/ml) plus anti-IFNγ (0.5 mg/ml)) or Th17 (TGFβ (3 ng/ml) plus IL-6 (30 ng/ml)) polarizing conditions plus titrating amounts of HF (1.25 nM-40 nM) or MAZ1310 (40 nM). The percentage of Th17 cells, (IL-17^+ IFNγ^−) was evaluated on day 3 following activation, whereas the abundance of Th1 cells (IFNγ^+ IL-4) and Th2 cells (IL-4^+ IFNγ^−) was determined 5 days following activation. All cytokine expression was determined by intracellular staining following PMA+Ionomycin+Brefeldin A re-stimulation and all data was normalized to control (MAZ1310)-treated cells. […] Biol., vol. 80:1-8 (2006).
Cytokines, antibodies and T cell culture: Purified CD4^+ CD25^− T cells were activated in vitro as previously described (I. M. Djuretic et al., Nat Immunol 8, 145 (2007)) using 0.3 μg/ml hamster anti-mouse CD3 (clone 145-2C11) (ATCC—Manassas, Va.) and 0.5 μg/ml hamster anti-mouse CD28 (BD Pharmingen, San Jose, Calif.). Activated cell cultures were differentiated using the following combinations of cytokines and antibodies: iTreg=recombinant human TGFβ1 (3 ng/ml; R&D systems, Minneapolis, Minn.), Th17=TGFβ1 (3 ng/ml) plus recombinant mouse IL-6 (30 ng/ml, R&D systems). Th1 and Th2 differentiation was performed as previously described. (I. M. Djuretic et al., Nat Immunol 8, 145 (2007)). Human IL-2 supernatant (National Cancer Institute) was used in culture at 0.01 U/ml and was added at 48 hours-post activation when T cells were split into tissue culture wells lacking CD3 and CD28 antibodies, with the exception of Th17 cultures that were maintained in the absence of IL-2. All reagents were added at the time of T cell activation and again at 48-hours post activation unless indicated otherwise. For some experiments, purified CD4^+ CD25^− T cells, CD8^+ T cells or B cells were labeled with 1 μM CFSE (Invitrogen) prior to activation in accordance with manufacturers instructions.
Detection of cytokine production: Cytokines secreted into media supernatant were measured using the mouse Th1/Th2 cytometric bead array (CBA, BD Pharmingen) in accordance with manufacturers instructions. Briefly, CD4^+ CD25^− T cells were activated in anti-CD3/anti-CD28-coated tissue culture wells and supernatants were collected at the indicated times. For detection of intracellular cytokines in murine cells, cultured T or B cells were stimulated with 10 nM PMA (Sigma) and […] (Sigma) for 4-5 hours in the presence of […] (Sigma). Stimulated cells were harvested, washed with PBS and fixed with PBS plus 4% paraformaldehyde at room temperature for 20 minutes. […]

## O=C(CC1NCCCC1O)Cn1cnc2cc(Br)c(Cl)cc2c1=O (racemic) [HF, 7-bromo-6-chloro-3-[3-(3-hydroxy-2-piperidinyl)-2-oxopropyl]-4(3H)-quinazolinone]
Dermal fibroblasts
  spreading and contractile activity of dermal fibroblasts: prevents the spreading and contractile activity
CD4+ CD25− T cells
  concentration causing general inhibition of T and B cell activation, proliferation and effector function: > 20 nM
CD4+ CD25− T cells; listed as halofuginone
  concentration causing general inhibition of T and B cell activation, proliferation and effector function: 20 to 40 nM
CD4+ CD25− T cells; low concentrations of HF (1-10 nM)
  T cell proliferation, CD25 upregulation or production of IL-2, TNF or IFNγ: did not affect
CD4+ CD25− T cells; low-dose HF
  Th1, Th2 or iTreg differentiation (IFNγ, IL-4 or Foxp3 expression): failed to modulate
